Source: article PMC8786932, “Bicyclic azetidines target acute and chronic stages of Toxoplasma gondii by inhibiting parasite phenylalanyl t-RNA synthetase” (Nature Communications, 2022)
“And” between values parts separate entries of the source, which are not always exact repeats. Equal entries are not always repeated. Where two headings read alike, the source gives them in different places.

Legend:
C. parvum = details: Fig 2A Tg_Pf_Cp EC50s; previously reported values, reference not visible in the shown part; cited from earlier work
[1] = test system: T. gondii residual infection; experiment: ELISA of survivors and bioassay of brain homogenate into naive recipient mice; type: in vivo, Ifngr1-/- mice
Method: Testing of compounds to prevent reactivation of chronic infection was […] to test the efficacy of PheRS inhibitors against chronic infection. In both cases, male and female C57BL/6 Ifngr1^−/− mice were infected by oral gavage with 5 cysts of the ME49-Fluc strain isolated from chronically infected CBA/J mice. Compound BRD7929 was formulated at 1 mg/mL in freshly prepared compound resuspension buffer (vehicle; 10% ETOH, 4% Tween-80 in 1xPBS), aliquoted for single use and stored at −20 °C. In the first protocol, at 48 h post-infection, animals were given sulfadiazine (0.25 g/L in drinking water) for 20 days post-infection to prevent death during acute infection and to allow establishment of chronic infection. Two days after completion of the sulfadiazine treatment, one cohort of mice were treated once a day with 10 mg/kg BRD7929 by oral gavage for 16 days and control mice received an equal volume of vehicle during the same time frame. Animals were monitored for survival and weight loss for 30 days post-treatment. […] All mice were monitored for survival and weight loss every two days for the duration of treatment and for an additional >20 days post-treatment. […] Recipient mice were monitored for 20 days for survival, weight loss, and seroconversion by ELISA.

[2] = test system: T. gondii RHΔΔ TgPheRS[L497I]; experiment: Tachyzoite lytic assay, L497I mutant; type: cell-based, Toxoplasma gondii; details: for % Parasite Growth: L497I; for EC50: Toxoplasma gondii
Method: In vitro cultures of HFF cells containing mature vacuoles were scraped, passaged through 23 g blunt end needles, and filtered using 3 micron filters. Purified parasites were resuspended in 350 μL of cytomix plus[49] and combined in a BTX 4 mm gap cuvette with 30 μL of PCR amplified templates corresponding to mutations of interest and 10 μg of pSAG1:Cas9-GFP U6:sgTgPheRS^[mut] (in 20 μL, 400 μL total volume, see Supplementary Data 1 for sgRNA sequences) prior to electroporation using a BTX ETM 830 electroporator. Amplified templates for TgPheRS mutations were generated from gBlocks (Integrated DNA Technologies, Coralville, IA, USA) that contain a BclI restriction site that replaces the PAM sequence to protect the repair template from being cut by Cas9. At 16 h post-transfection, transgenic parasites expressing pSAG1:Cas9-GFP were sorted on a Sony SH800 FACS sorter directly into 96-well plates. Single clones containing TgPheRS^[mut] were identified by amplifying a ~500 bp PCR fragment around introduced mutation followed by digestion using BclI (New England Biolabs) BclI sensitive clones were expanded and the locus was Sanger sequenced to verify incorporation of each independent mutation. To generate firefly luciferase (FLuc) expressing strains, freshly harvested parasites were combined with 20 μg of pTUB-FLUC DHFR flox plasmid and 10 μg of pSAG1:Cas9-GFP U6:sgUPRT[50] (in 50 μL cytomix plus) and transformed by electroporation as described above. Parasites were allowed to recover overnight followed by sequential selection with pyrimethamine (1.0 μM) and 5-flurodeoxyuracil (FUDR, 10 μM), as described previously. Stable clones were isolated by limiting dilution and a clone from each genetic background selected based on high luciferase activity (Table 1).
Parasite growth on HFF monolayers was monitored using a 96-well plate-based lytic assay modified from a previously described protocol. […]. Freshly harvested parasites (7.5 × 10^4 /well) were added to each well (in 100uL volume) to reach the final concentration range (10 μM to 0.0005 μM, 200 μL/well, 0.1% DMSO). Plates were incubated for 72 h at 37 °C then culture medium was aspirated and monolayers were fixed with 100% ethanol (ETOH) for 5 min at room temperature (RT). After rinsing with water, wells were stained with 0.1% crystal violet solution for 10 min at RT. Plates were rinsed with water, air dried, and absorption quantified on the Cytation 3 multi-mode imager at 570 nm wavelength. % parasite growth was calculated as 100−[(OD value for infected cultures at each concentration of compound/average OD value for no compound and no parasite infection) × 100]. EC50 values were calculated based on the mean of three biological replicates with each replicate containing two technical replicates.

COc1ccc(NC(=O)N2CCCCN3[C@H](CO)[C@H](c4ccc(C#Cc5ccccc5)cc4)[C@@H]3C2)cc1 [BRD3444]
EC50 (C. parvum): 15 nM

COc1ccc(NC(=O)N2CCCCN3[C@H](CN(C)C)[C@H](c4ccc(C#Cc5ccccc5)cc4)[C@@H]3C2)cc1 [BRD7929]
bioassay of brains of surviving treated mice in naive recipients ([1]; oral challenge model survivors, recipients monitored 20 days): All recipient mice survived and remained seronegative
bioassay of brain homogenate of the surviving animal ([1]; reactivation model survivor): failed to detect any residual infection
% Parasite Growth ([2]; 0.00152416 uM): 80.35% and 85.68% and 82.9%
% Parasite Growth ([2]; 0.00457247 uM): 85.9% and 86.11% and 77.47%
% Parasite Growth ([2]; 0.01371742 uM): 84.76% and 87.14% and 84.02%
% Parasite Growth ([2]; 0.04115226 uM): 84.55% and 85.22% and 84.57%
% Parasite Growth ([2]; 0.12345679 uM): 86.89% and 87% and 83.23%
% Parasite Growth ([2]; 0.37037037 uM): 70.95% and 85.33% and 85.39%
% Parasite Growth ([2]; 1.11111111 uM): 77.92% and 85.54% and 61.12%
% Parasite Growth ([2]; 3.33333333 uM): 63.14%
% Parasite Growth ([2]; 10 uM): 57.07% and 70.68% and 64.5%
EC50 ([2]; read-out: EC50 (growth restriction)): 2310 nM
EC50 ([2]; read-out: EC50, L497I): 1170 nM
